Values of other authors, collected in US9238023B2, “Methods for improving health in humans” (Quality IP Holdings, LLC, priority 2012, dated 2016).

Columns and labels:
hGH = conditions: for effect on hGH: other amino acids, literature
GH = conditions: subcutaneous injection of 0.06 IU, GH deficient subjects

N=C(N)NCCC[C@H](N)C(=O)O [arginine]
elevation of serum hGH levels (hGH; 30 g, males): 8.6 fold | increase of hGH levels (hGH; intravenous infusion 183 mg/kg body weight, females): > 20 fold

N[C@@H](Cc1c[nH]cn1)C(=O)O [histidine]
effect on hGH (hGH): marked increases in hGH

NCCCC[C@H](N)C(=O)O [lysine]
effect on hGH (hGH): marked increases in hGH

CSCC[C@H](N)C(=O)O [methionine]
effect on hGH (hGH): marked increases in hGH

NCCC[C@H](N)C(=O)O [ornithine]
effect on hGH (hGH): marked increases in hGH

N[C@@H](Cc1ccccc1)C(=O)O [phenylalanine]
effect on hGH (hGH): marked increases in hGH

HGH: human growth hormone, subcutaneous injection in the treatment of GH deficient subjects
mean levels of GH reached (GH): 0.4 ng/mL
